This assay has as its target T1, Progesterone receptor (Homo sapiens) (UniProt P06401).
T1 sequence (whole entry): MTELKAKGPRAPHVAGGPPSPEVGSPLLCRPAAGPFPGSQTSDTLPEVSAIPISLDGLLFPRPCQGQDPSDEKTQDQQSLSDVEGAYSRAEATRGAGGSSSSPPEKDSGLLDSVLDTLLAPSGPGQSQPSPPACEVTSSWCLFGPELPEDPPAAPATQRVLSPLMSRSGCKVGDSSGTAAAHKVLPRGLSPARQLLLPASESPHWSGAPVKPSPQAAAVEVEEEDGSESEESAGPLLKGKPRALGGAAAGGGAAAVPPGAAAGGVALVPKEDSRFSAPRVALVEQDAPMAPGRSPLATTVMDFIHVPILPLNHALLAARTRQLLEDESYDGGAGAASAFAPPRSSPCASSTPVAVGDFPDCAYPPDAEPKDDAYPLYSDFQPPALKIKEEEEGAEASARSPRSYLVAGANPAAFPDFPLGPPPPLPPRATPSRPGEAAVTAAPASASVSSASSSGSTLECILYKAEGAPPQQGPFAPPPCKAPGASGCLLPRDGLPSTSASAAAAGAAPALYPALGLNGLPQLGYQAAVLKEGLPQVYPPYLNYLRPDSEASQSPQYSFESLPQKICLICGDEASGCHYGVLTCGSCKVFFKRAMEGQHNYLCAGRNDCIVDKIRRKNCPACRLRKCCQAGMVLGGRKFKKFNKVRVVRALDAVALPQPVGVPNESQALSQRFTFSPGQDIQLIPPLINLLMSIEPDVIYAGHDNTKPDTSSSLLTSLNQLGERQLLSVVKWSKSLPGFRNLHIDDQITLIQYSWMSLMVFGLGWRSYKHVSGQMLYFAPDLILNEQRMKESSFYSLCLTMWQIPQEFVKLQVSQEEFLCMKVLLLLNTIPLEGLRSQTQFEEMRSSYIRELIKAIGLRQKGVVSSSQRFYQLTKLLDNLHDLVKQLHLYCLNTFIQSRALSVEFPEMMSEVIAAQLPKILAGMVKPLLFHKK
Nature of the assay: Antiprogestagenic activity at progesterone receptor in human T47D cells assessed as inhibition of progesterone-induced alkaline phosphatase activity relative to mifepristone. The assay is classed as cell-based. Details: scale not given: the % may be the effect or the level left.

`CC#C[C@]1(O)CC[C@H]2[C@@H]3CCC4=CC(=O)CCC4=C3[C@@H](c3ccc(N(C)CCC(=O)O)cc3)C[C@@]21C`: the Activity amounted to 0.15%.
As for `CC#C[C@]1(O)CC[C@H]2[C@@H]3CCC4=CC(=O)CCC4=C3[C@@H](c3ccc(N(C)CCCCCC(=O)O)cc3)C[C@@]21C`, the Activity amounted to 0.11%.

The record behind these values is ChEMBL document CHEMBL1157577.
